{
  "source": "patent US20070185013A1",
  "about": "“Use of chk1 inhibitors to control cell proliferation” (ICOS CORPORATION, priority 2003, published 2007)",
  "key": {"H460 tumor cells": {"test_system": "H460 tumor cells", "assay": "H460 non-small cell lung tumor xenograft model, tumor volume (Example 1)", "assay_type": "in vivo, mice", "settings": "gemcitabine alone, 160 mg/kg q3d×3", "from_the_text": "A method of the invention provided an improved antiproliferative effect over co-administration in an art-recognized […] tumor model. In the experiment, gemcitabine was used as the Chk1 activator and a diaryl urea compound according to Keegan et al., PCT/US02/06452, was used as the selective Chk1 inhibitor. (The same Chk1 inhibitor was used in the examples 2-11.) The target phase of gemcitabine is the S phase of the cell cycle. A non-small cell lung tumor xenograft tumor model, H460, was the art-recognized […] tumor model.\nNude mice were engrafted with H460 tumor cells and allowed to grow to an average of 75 mm3. Tumor-bearing mice were then treated with vehicle, gemcitabine or gemcitabine plus 400 mg/kg selective Chk1 inhibitor. The gemcitabine was administered at a dose of 160 mg/kg q3d×3 either simultaneously with the Chk1 inhibitor (co-administration) or, according to the invention, 18 hours prior to the Chk1 inhibitor to allow for S phase synchronization.\nTumors were measured every 2-3 days. On day 10, the median tumor volume for the vehicle group was 10 times the starting volume, while the gemcitabine alone group was four times the starting volume. The tumor volume for the gemcitabine plus Chk1 inhibitor co-administration group was also four times the starting volume. […]"}, "H460 tumors": {"test_system": "H460 tumors", "assay": "H3-P staining in H460 tumors after gemcitabine", "assay_type": "in vivo, rodent", "method": "(§1) Chem. 271:13197-201. 1996; Goto et al., J Biol Chem. 274:25543-9, 1999). The assay protocol was as follows. Tumors from rodents treated or untreated with Chk1 activator (in the present study, chemotherapy agent) and/or Chk1 inhibitor, were excised and paraffin embedded. The tumors are cut into 6 micron thick slices and mounted on glass slides. […] The slides are then heated to 95° C. in 10 mM sodium citrate for 10 minutes followed by a 20 minute cooling step. The slides are blocked for 30 minutes with Block buffer (20% normal human serum and 2% bovine serum albumin in phosphate buffered saline containing 0.05% Triton X-100 (PBST)). The anti-phospho histone H3 antibody (Upstate Biotech, Cat. #06-570) is diluted 1:200 in the Block buffer and incubated with the slides for one hour. The slides are washed 3 times 5 minutes in PBST. The secondary antibody, donkey anti-rabbit rhodamine (Jackson, cat #711-295-152) was added for 30 minutes. The slides were then washed twice in PBST and […] of […] DAPI (Sigma) in PBS is added and allowed to stain for 30 minutes. The slides were then washed two more times in PBST and mounted with Vectashield (Vector, cat # H-1400). Slides were viewed using fluorescence microscopy. The percentage of cells stained with H3-P antibody relative to total (DAPI stained) cells were quantified using Metamorph software (Universal Imaging Corporation, Version 4.6). […]"}, "137-62 tumors": {"test_system": "137-62 tumors", "assay": "H3-P staining in 137-62 tumors after gemcitabine", "assay_type": "in vivo, rat", "method": "as §1"}, "Chk1 [1]": {"test_system": "Chk1", "assay": "Chk1 serine 317 and 345 phosphorylation, Western blot in HT29 cells", "assay_type": "cell-based, human", "settings": "20 μM gemcitabine for two hours, 22 additional hours", "from_the_text": "To determine whether an agent is a Chk1 activator, the phosphorylation state of Chk1 can be measured using phospho-specific antibodies to specific phosphorylation sites on Chk1. […] Liu, Q., et al., (2000) Genes Dev. 14, 1448-1459; Zhao, H., et al., (2001) Mol. Cell. Biol. 21, 4129-4139; Lopez-Girona, A., et al., (2001) Proc. Natl. Acad. Sci. U.S.A. 98, 11289-11294; Guo, Z., et al., (2000). Genes Dev. 14, 2745-2756; Gatei, M., et al., (2003) J. Biol. Chem. 278, 14806-14811; Ng C P, et al., J Biol Chem. 2004 Mar. 5; 279(10):8808-19; Wang Y, et al., Natl Acad Sci USA. 2003 Dec. 23; 100(26):15387-92; Stojic L, et al., Genes Dev. 2004 Jun. 1; 18(11):1331-44. These serine sites are phosphorylated by upstream checkpoint kinases, Atm and Atr. Liu, Q., et al., S. J. (2000) Genes Dev. 14, 1448-1459; Zhao, H., et al. (2001) Mol. Cell. Biol. 21, 4129-4139).\nThe phosphorylation of these sites in response to a candidate Chk1 activator can be monitored by Western blot or immunohistochemistry of tumor cells. […] HT29 cells were treated with 20 μM gemcitabine for two hours. The gemcitabine was washed out of the cell growth media and cells were incubated for 22 additional hours. Protein lysates were prepared and separated by an SDS-polyacrylamide gel electrophoresis. […]"}, "Chk1 [2]": {"test_system": "Chk1", "assay": "Chk1 serine 296 phosphorylation, Western blot in HT29 cells", "assay_type": "cell-based, human", "settings": "HT29 cells, 20 μM gemcitabine for two hours, 22 additional hours", "method": "Phosphorylation at this site is not inhibited by Wortinannin, which inhibits Atm and Atr. Therefore the phosphorylation of serine 296 is distinct from phosphorylation at serines 317 and 345 described in Example 12. […] Therefore, this approach may be used to monitor Chk1 activity in tumors in response to Chk1 activators. Further, this approach may be used to measure inhibition of Chk1 activation by Chk1 inhibitors.\nThus, HT 29 cells were treated with 20 μM gemcitabine for two hours. The gemcitabine was washed out of the cell growth media and cells were incubated for 22 additional hours. Protein lysates were prepared and separated by an SDS-polyacrylamide gel electrophoresis. Proteins were transferred to polyvinylidene fluoride (PVDF) membranes and probed with antisera (Cell Signalling) specific for phosphorlyated serine 296 (Cell Signalling). […] Further, HT29 cells treated with selective Chk1 inhibitors for 15 minutes show no serine 296 phosphorylation."}},
  "note": "“Also recorded” adds a separate entry of the source.",
  "data": [
    {"smiles": "Nc1ccn([C@@H]2O[C@H](CO)[C@@H](O)C2(F)F)c(=O)n1", "note": "[gemcitabine]", "values": [
      {"measurement": "median tumor volume on day 10", "setting": "H460 tumor cells", "value": "four"},
      {"measurement": "time at which cells exited S phase arrest", "setting": "H460 tumors; H460 cells, after gemcitabine", "value": 48, "unit": "h"},
      {"measurement": "time of lowest H3-P staining", "setting": "H460 tumors; H460 tumors treated with gemcitabine", "value": 12, "unit": "h"},
      {"measurement": "time at which cells exited S phase arrest", "setting": "137-62 tumors; 137-62 cells, after gemcitabine", "value": 24, "unit": "h"},
      {"measurement": "time of lowest H3-P staining", "setting": "137-62 tumors; 137-62 tumors treated with gemcitabine", "value": 12, "unit": "h"},
      {"measurement": "phosphorylation of Chk1 serines 317 and 345", "setting": "Chk1 [1]", "value": "results in the phosphorylation of both serines 317 and 345"},
      {"measurement": "phosphorylation of Chk1 serine 296", "setting": "Chk1 [2]", "value": "stimulated; also recorded: results in the phosphorylation of serine 296"}
    ]}
  ]
}
